Measurements taken from publication PMC11173536, “2-Aryladenine Derivatives as a Potent Scaffold for Adenosine Receptor Antagonists: The 6-Morpholino Derivatives” (Molecules, 2024).
Like-named read-outs stand apart in the source and are kept apart here.

Columns and labels:
[1] = target: T1, human A1 adenosine receptor (Homo sapiens, UniProt P30542); test: radioligand competition, [3H]DPCPX, CHO-A1 membranes; assay type: binding
T1 construct: gene ADORA1; full-length receptor
T1 sequence (P30542 1-326): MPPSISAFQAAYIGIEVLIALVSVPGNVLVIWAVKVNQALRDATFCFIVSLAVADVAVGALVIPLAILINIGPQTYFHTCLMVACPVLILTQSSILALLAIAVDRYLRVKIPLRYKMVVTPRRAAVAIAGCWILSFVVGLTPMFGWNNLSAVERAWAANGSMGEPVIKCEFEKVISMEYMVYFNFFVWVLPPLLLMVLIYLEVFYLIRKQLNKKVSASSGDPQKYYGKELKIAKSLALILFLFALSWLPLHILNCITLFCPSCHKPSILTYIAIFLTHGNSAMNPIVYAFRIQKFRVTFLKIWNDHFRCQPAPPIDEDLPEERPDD
Text: radioligand competition, [3H]DPCPX, CHO-A1 membranes on human A1 adenosine receptor

[2] = target: T1, human A1 adenosine receptor; test: as above; assay type: binding; remark: listed apart in the source
[3] = target: T2, human A2A adenosine receptor (Homo sapiens, UniProt P29274); test: radioligand competition, [3H]ZM241385, HeLa-A2A membranes; assay type: binding
T2 construct: gene ADORA2A; full-length receptor; membranes of HeLa-A2A cells
T2 sequence (P29274 whole entry): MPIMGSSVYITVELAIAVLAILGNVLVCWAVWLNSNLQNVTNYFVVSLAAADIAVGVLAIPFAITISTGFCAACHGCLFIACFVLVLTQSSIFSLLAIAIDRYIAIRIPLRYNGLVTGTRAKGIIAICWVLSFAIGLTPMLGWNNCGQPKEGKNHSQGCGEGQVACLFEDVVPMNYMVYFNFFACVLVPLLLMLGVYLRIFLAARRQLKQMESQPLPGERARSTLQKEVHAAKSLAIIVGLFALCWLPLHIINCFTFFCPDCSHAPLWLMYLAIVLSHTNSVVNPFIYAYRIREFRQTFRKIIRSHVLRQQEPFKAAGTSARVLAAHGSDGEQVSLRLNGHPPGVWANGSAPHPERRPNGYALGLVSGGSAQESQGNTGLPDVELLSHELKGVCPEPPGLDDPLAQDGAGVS
Text: radioligand competition, [3H]ZM241385, HeLa-A2A membranes on human A2A adenosine receptor

[4] = target: T3, human A2B adenosine receptor (Homo sapiens, UniProt P29275); test: radioligand competition, [3H]DPCPX, HEK-293-A2B membranes; assay type: binding
T3 construct: gene ADORA2B; full-length receptor; membranes of HEK-293-A2B cells (Euroscreen)
T3 sequence (P29275 1-332): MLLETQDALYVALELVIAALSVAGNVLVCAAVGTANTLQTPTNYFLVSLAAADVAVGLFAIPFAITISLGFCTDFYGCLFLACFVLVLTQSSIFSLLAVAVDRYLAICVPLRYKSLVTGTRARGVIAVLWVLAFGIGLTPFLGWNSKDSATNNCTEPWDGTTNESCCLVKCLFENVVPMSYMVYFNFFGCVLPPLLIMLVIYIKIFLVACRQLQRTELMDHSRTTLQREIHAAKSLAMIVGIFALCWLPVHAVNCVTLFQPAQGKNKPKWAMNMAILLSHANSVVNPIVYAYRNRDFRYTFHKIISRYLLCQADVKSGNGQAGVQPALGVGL
Text: radioligand competition, [3H]DPCPX, HEK-293-A2B membranes on human A2B adenosine receptor

[5] = target: T4, human A3 adenosine receptor (Homo sapiens, UniProt P0DMS8); test: radioligand competition, [3H]NECA, HeLa-A3 membranes; assay type: binding
T4 construct: gene ADORA3; full-length receptor
T4 sequence (P0DMS8 1-318): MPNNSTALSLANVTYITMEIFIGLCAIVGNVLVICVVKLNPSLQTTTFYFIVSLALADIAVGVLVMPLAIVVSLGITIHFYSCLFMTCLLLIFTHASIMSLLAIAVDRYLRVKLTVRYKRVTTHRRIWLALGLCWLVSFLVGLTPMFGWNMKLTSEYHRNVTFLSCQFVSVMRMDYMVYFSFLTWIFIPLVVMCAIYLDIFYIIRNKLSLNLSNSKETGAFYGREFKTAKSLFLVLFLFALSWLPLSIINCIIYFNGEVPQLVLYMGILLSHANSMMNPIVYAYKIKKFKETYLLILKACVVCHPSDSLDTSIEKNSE
Text: radioligand competition, [3H]NECA, HeLa-A3 membranes on human A3 adenosine receptor

[6] = target: T4, human A3 adenosine receptor; test: cAMP enzyme immunoassay, antagonism of NECA, CHO-A3 cells; assay type: cell-based; settings: read-out: Potency (pKB) / A3 (converted)
Text: cAMP enzyme immunoassay, antagonism of NECA, CHO-A3 cells on human A3 adenosine receptor

[7] = target: T1, human A1 adenosine receptor; test: cAMP enzyme immunoassay, antagonism of NECA, CHO-A1 cells; assay type: cell-based; settings: read-out: Potency (pKB) / A1 (converted)
Text: cAMP enzyme immunoassay, antagonism of NECA, CHO-A1 cells on human A1 adenosine receptor

| Compound | Ki ([2]; read-out: A1 (converted)) [µM] | Ki [3] [µM] | Ki [4] [µM] | Ki [5] [µM] | further results |
| --- | --- | --- | --- | --- | --- |
| Cn1cnc2c(N3CCOCC3)nc(-c3ccccc3Cl)nc21 [3a, 4-(2-(2-Chlorophenyl)-9-methyl-9H-purin-6-yl)morpholine] | – | – | – | – | inhibition at 10 µM [1]: 36 ± 1% |
| COc1ccccc1-c1nc(N2CCOCC2)c2ncn(C)c2n1 [3b, 4-(2-(2-Methoxyphenyl)-9-methyl-9H-purin-6-yl)morpholine] | – | – | – | – | inhibition at 10 µM [1]: 22 ± 1% |
| Cn1cnc2c(N3CCOCC3)nc(-c3ccc(Cl)cc3)nc21 [3f, 4-(2-(4-Chlorophenyl)-9-methyl-9H-purin-6-yl)morpholine] | – | – | – | – | inhibition at 10 µM [1]: 37 ± 4% |
| Cn1cnc2c(N3CCOCC3)nc(-c3cccc(O)c3O)nc21 [3g, 3-(9-Methyl-6-morpholino-9H-purin-2-yl)benzene-1,2-diol] | – | – | – | – | inhibition at 10 µM [1]: 33 ± 0.3% |
| Cn1cnc2c(N3CCOCC3)nc(-c3cc(Cl)ccc3Cl)nc21 [3h, 4-(2-(2,5-Dichlorophenyl)-9-methyl-9H-purin-6-yl)morpholine] | – | – | – | – | inhibition at 10 µM [1]: 41 ± 2% |
| Cn1cnc2c(N3CCOCC3)nc(-c3cc(O)ccc3O)nc21 [3i, 2-(9-Methyl-6-morpholino-9H-purin-2-yl)benzene-1,4-diol] | 0.437 | 0.562 | 0.479 | – | – |
| COc1ccc(O)c(-c2nc(N3CCOCC3)c3ncn(C)c3n2)c1 [3j, 4-Methoxy-2-(9-methyl-6-morpholino-9H-purin-2-yl)phenol] | 0.525 | 1.23 | 1.66 | – | – |
| COc1ccc(F)c(-c2nc(N3CCOCC3)c3ncn(C)c3n2)c1 [3l, 4-(2-(2-Fluoro-5-methoxyphenyl)-9-methyl-9H-purin-6-yl)morpholine] | – | – | – | 5.25 | – |
| Cn1cnc2c(N3CCOCC3)nc(-c3cc(F)ccc3F)nc21 [3m, 4-(2-(2,5-Difluorophenyl)-9-methyl-9H-purin-6-yl)morpholine] | 0.525 | – | – | – | – |
| Oc1ccccc1-c1nc(N2CCOCC2)c2nc[nH]c2n1 [3n, 2-(6-Morpholino-9H-purin-2-yl)phenol] | 0.0646 | 0.107 | 0.138 | 0.257 | – |
| Oc1cccc(-c2nc(N3CCOCC3)c3nc[nH]c3n2)c1 [3p, 3-(6-Morpholino-9H-purin-2-yl)phenol] | 0.0324 | 0.55 | – | 0.468 | – |
| Clc1ccc(-c2nc(N3CCOCC3)c3nc[nH]c3n2)cc1 [3q, 4-(2-(4-Chlorophenyl)-9H-purin-6-yl)morpholine] | 0.0955 | – | – | 0.0339 | – |
| Clc1ccc(-c2nc(N3CCOCC3)c3nc[nH]c3n2)cc1Cl [3r, 4-(2-(3,4-Dichlorophenyl)-9H-purin-6-yl)morpholine] | – | – | – | 0.0708 | – |
| FC(F)(F)c1cc(-c2nc(N3CCOCC3)c3nc[nH]c3n2)ccc1Cl [3s, 4-(2-(4-Chloro-3-(trifluoromethyl)phenyl)-9H-purin-6-yl)morpholine] | – | – | – | 0.955 | – |
| Clc1ccc(Cl)c(-c2nc(N3CCOCC3)c3nc[nH]c3n2)c1 [3t, 4-(2-(2,5-Dichlorophenyl)-9H-purin-6-yl)morpholine] | 1.07 | – | – | 0.0692 | – |
| Oc1ccc(Cl)cc1-c1nc(N2CCOCC2)c2nc[nH]c2n1 [3u] | 0.0891 | – | 0.617 | – | – |
| COc1ccc(F)c(-c2nc(N3CCOCC3)c3nc[nH]c3n2)c1 [3v, 4-(2-(2-Fluoro-5-methoxyphenyl)-9H-purin-6-yl)morpholine] | – | – | 0.398 | 0.0148 | Ki ([2]; read-out: pKi (converted)): > 10 µM; Kb [6]: 0.00575 µM |
| Fc1ccc(F)c(-c2nc(N3CCOCC3)c3nc[nH]c3n2)c1 [3x, 4-(2-(2,5-Difluorophenyl)-9H-purin-6-yl)morpholine] | 0.00589 | 0.0708 | 0.0363 | 0.0234 | Kb [7]: 0.00562 µM |

Now from value to compound, other results behind:

| Ki ([2]; read-out: A1 (converted)) [µM] | Ki [3] [µM] | Ki [4] [µM] | Ki [5] [µM] | Compound | further results |
| --- | --- | --- | --- | --- | --- |
| 0.309 | 0.339 | 2 | – | Cn1cnc2c(N3CCOCC3)nc(-c3ccccc3O)nc21 [3c, 2-(9-Methyl-6-morpholino-9H-purin-2-yl)phenol] | – |
| 0.158 | – | – | – | Cn1cnc2c(N3CCOCC3)nc(-c3cccc(Cl)c3)nc21 [3d, 4-(2-(3-Chlorophenyl)-9-methyl-9H-purin-6-yl)morpholine] | – |
| 0.692 | – | – | – | Cn1cnc2c(N3CCOCC3)nc(-c3cccc(O)c3)nc21 [3e, 3-(9-Methyl-6-morpholino-9H-purin-2-yl)phenol] | – |
| 0.123 | 0.708 | – | – | Cn1cnc2c(N3CCOCC3)nc(-c3cc(Cl)ccc3O)nc21 [3k, 4-Chloro-2-(9-methyl-6-morpholino-9H-purin-2-yl)phenol] | – |
| 0.0178 | 0.0468 | 0.0759 | 0.0398 | Clc1cccc(-c2nc(N3CCOCC3)c3nc[nH]c3n2)c1 [3o, 4-(2-(3-Chlorophenyl)-9H-purin-6-yl)morpholine] | – |
